Laboratory results published in PMC9595134, “Novel pituitary actions of GnRH in teleost: The link between reproduction and feeding regulation” (Frontiers in Endocrinology, 2022).
Where a SMILES comes first, the peptide text is derived from it. [ ]: non-standard residue; d: D form. pGlu = O=C1CC[C@@H](C(=O)O)N1

Columns and labels:
[1] = tested on: goldfish; set-up: method as in PMID 7507838, PMID 8045371; conditions: sexually regressed animals, ref [34], [35]; cited from earlier work
[2] = tested on: grass carp pituitary cells; assay: qRT-PCR of anorectic genes in pituitary cells; assay type: cell-based, grass carp (Ctenopharyngodon idellus)
Protocol: The preparation of grass carp pituitary cells was performed as mentioned above. After drug treatment, the total RNA of these cells was isolated by TRIzol reagent and reverse transcribed into cDNA with Hifair™ III 1st Strand cDNA Synthesis Kit. The transcript levels of several anorectic peptides (POMCb, CART2, UTS1, NMBa, NMBb, and Lepr) and reproductive genes (GtHα, LHβ, FSHβ, INHBa, SgII, DRD2) were detected by using an ABI 7500 quantitative real-time PCR (qRT-PCR) system (Biosystems, USA) (information of primers for target genes is listed in Supplementary Table S3 ). In this process, a serial gradient dilution of plasmid DNA of these genes was used as a standard for data calibration. The conditions of qRT-PCR were set to 10 min, 95°C, for pre-degeneration; 15 s, 95°C, for degeneration; 30 s, 55°C–60°C, for annealing; 30 s, 72°C, for extending; and 20 s, 82°C, for signal detection with 40 cycles. Finally, the melt curve obtained through each test was used to verify and check the reliability and specificity of the corresponding qRT-PCR.
The transcript level was detected using qRT-PCR by ABI 7500 software, while the data calibration of each reaction was performed through standard curves with the dynamic range of 10^5 and correlation coefficient >0.95. The transcript level of β-actin was used as an internal control, and target gene mRNA expression was normalized and calculated as a percentage of the mean value (as “% Ctrl”). Based on merging four to eight replicates (as mean ± SEM), the data were analyzed with a one-way ANOVA to differentiate the significant differences from other treatment experiments. The SPSS Statistics 26.0 software was used to do a Dunnett’s post-hoc test. […] The different letters represent a significant difference at p < 0.05 between groups.
To further verify the functional role of GnRH2 and GnRH3 on feeding regulation, time- and dose-dependent tests were performed to detect the effect of GnRH2 and GnRH3 on anorectic gene (POMCb, CART2, UTS1, NMBa, NMBb, and LEPR) mRNA expression. In the time-course test, the grass carp pituitary cells were incubated by GnRH2 or GnRH3 (1 μM) for 3, 6, 12, and 24 h, respectively. […] In the dose-dependent test, grass carp pituitary cells were incubated by the continuous gradient dilution of GnRH2 or GnRH3 (0.1–1,000 nM) for 24 h.
Figure 9 Regulation of feeding hormone gene mRNA expression by GnRH2 and GnRH3 in grass carp pituitary cells. (A) Time-course experiment of grass carp GnRH2 (1 μM) and GnRH3 (1 μM) on POMCb, CART2, UTS1, NMBa, NMBb, and LEPR mRNA expression in grass carp pituitary cells. (B) Dose dependence of a 24-h treatment with increasing levels of GnRH2 and GnRH3 (0.1–1,000 nM) on POMCb, CART2, UTS1, NMBa, NMBb, and LEPR mRNA expression in grass carp pituitary cells. […]

[3] = tested on: pituitary; conditions: teleost; ref [5], [10]; cited from earlier work
Excerpt: Subsequently, GnRH2 had been firstly found in chicken so that this variant was also named as chicken GnRH (cGnRH) ([3]). In addition, the third GnRH variant (GnRH3) was an ubiquitous and unique subtype existing in fish ([3]), which was primitively discovered in salmon so that it was named as salmon GnRH (sGnRH) ([4]). Multiple GnRH variants (two or three forms) are present in all teleosts ([5]), but the receptor selectivity a ...

Structure (SMILES): CC(C)C[C@H](NC(=O)[C@H](Cc1c[nH]c2ccccc12)NC(=O)CNC(=O)[C@H](Cc1ccc(O)cc1)NC(=O)[C@H](CO)NC(=O)[C@H](Cc1c[nH]c2ccccc12)NC(=O)[C@H](Cc1c[nH]cn1)NC(=O)[C@@H]1CCC(=O)N1)C(=O)N1CCC[C@H]1C(=O)NCC(N)=O [GnRH3] ([pGlu]HWSYGWLPG-NH2)
- LH-releasing activity [1]: potent LH-releasing activity
- effect on POMCb, CART2, UTS1, NMBa, NMBb, and LEPR mRNA expression, time course ([2]; 1 μM, 3, 6, 12, and 24 h, time-dependent, Figure 9A): significantly induce
- effect on POMCb, CART2, UTS1, NMBa, NMBb, and LEPR mRNA expression, dose dependence ([2]; 0.1–1,000 nM, 24 h, dose-dependent, Figure 9B): significantly induce
- effect on LH and FSH secretion in the pituitary [3]: could stimulate
